From patent US8569331B2 (ArQule, Inc., priority 2010, dated 2013)
Where a name gives a salt, the structure may show the parent alone.

Target: T1, AKT1 (Homo sapiens, UniProt P31749)
T1 construct: Full-length non-phosphorylated AKT1 is diluted in assay buffer
Experiment: AKT1 Alpha Screen Assay
Assay type: biochemical
Conditions: full-length non-phosphorylated AKT1 8 nM, activated by PDK1 and MAPKAPK2, lipid vesicles, 50 μM ATP; biotinylated crosstide substrate; AlphaScreen
Experimental: AKT1 activity is assayed using the GSK3-derived biotinylated peptide substrate, crosstide (biotin-[…]), and AlphaScreen™ (Amplified Luminescent Proximity Homogeneous Assay) technology. AKT1 activation is achieved by the addition of the activating kinases PDK1 and MAPKAPK2, lipid vesicles, and ATP. The extent of peptide phosphorylation is determined using a phospho-AKT substrate antibody and acceptor beads conjugated to Protein A and donor beads conjugated to streptavidin that will bind to the biotin on the peptide. Excitation of the donor beads converts ambient oxygen to excited singlet oxygen which, when in close proximity to acceptor beads, reacts with acceptor beads resulting in signal amplification.
Test inhibitors and controls are prepared in 10% DMSO at 10-fold the desired final concentration, and added to each well of a reaction plate (Corning 96-well half-area solid white nonbinding surface plate) in a volume of 2.5 μL. Full-length non-phosphorylated AKT1 is diluted in assay buffer (50 mM Tris, pH 8.0, 0.02 mg/mL BSA, 10 mM MgCl2, 1 mM EGTA, 10% glycerol, 0.2 mM Na3VO4, 1 mM DTT, 0.1 mM β-glycerophosphate, and 0.2 mM NaF) and added to each well in a volume of 17.5 μL for a final concentration in the 25 μL reaction of 8 nM (Akt1). […] Assay plates are incubated for 90 minutes at room temperature in the dark, and the plates are read on a Perkin Elmer Envision Multilabel plate reader (excitation wavelength: […], emission wavelength: 570 nm).
Reaction conditions: 2.5 μL 10× Akt inhibitor in 10% DMSO; 17.5 μL non-phosphorylated Akt or buffer for blank; 20 minute pre-incubation at room temperature; 5 μL Reaction Mix (5×ATP, 5×substrate, 5×PDK1, 5×MK2, and 5× lipid vesicle mixture); 30 minute incubation at room temperature; 10 μL Detection Buffer; 90 minute incubation at room temperature and Detection (excitation: 640 nm, emission: 570 nm).

T1 sequence (P31749 whole entry): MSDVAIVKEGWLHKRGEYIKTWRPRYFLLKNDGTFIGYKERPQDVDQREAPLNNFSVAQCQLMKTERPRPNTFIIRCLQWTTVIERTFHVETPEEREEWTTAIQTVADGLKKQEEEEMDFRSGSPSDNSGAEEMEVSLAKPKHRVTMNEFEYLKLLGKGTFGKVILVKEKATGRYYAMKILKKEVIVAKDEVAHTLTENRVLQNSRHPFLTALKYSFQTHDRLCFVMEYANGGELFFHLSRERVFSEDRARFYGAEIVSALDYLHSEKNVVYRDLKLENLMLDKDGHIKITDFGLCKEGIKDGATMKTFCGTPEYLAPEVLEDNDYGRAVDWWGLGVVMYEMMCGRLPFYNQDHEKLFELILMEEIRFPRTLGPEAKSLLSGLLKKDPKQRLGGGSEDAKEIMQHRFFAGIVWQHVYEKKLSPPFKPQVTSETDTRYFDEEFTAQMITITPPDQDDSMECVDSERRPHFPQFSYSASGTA

IC50 | SMILES
83 nM | COc1ccc(-c2nc3n(c2-c2ccc(C4(N)CCC4)c(F)c2)-c2cccnc2Nc2ccccc2-3)cc1 [Example 127]
53 nM | NC1(c2ccc(-c3c(-c4ccc(-c5ccccc5)cc4)nc4n3-c3cccnc3Nc3ccccc3-4)cc2)CCC1 [Example 138]
168 nM | NC1(c2ccc(-c3c(-c4ccccc4F)nc4n3-c3cccnc3Nc3ccccc3-4)cc2F)CCC1 [Example 137]
122 nM | NCc1ccc(-c2c(-c3ccccc3)nc3n2-c2cccnc2Nc2ccccc2-3)cc1 [Example 143]
295 nM | NC1(c2ccc(-c3c(-c4cccc(F)c4)nc4n3-c3cccnc3Nc3ccccc3-4)cc2F)CCC1 [Example 140]
451 nM | Cc1ccccc1-c1nc2n(c1-c1ccc(C3(N)CCC3)cc1)-c1cccnc1Nc1ccccc1-2 [Example 141]
66 nM | C[C@@H](N)c1ccc(-c2c(-c3ccccc3)nc3n2-c2cccnc2Nc2ccccc2-3)cc1 [Example 148]
3 nM | NC1(c2ccc(-c3c(-c4nccs4)nc4n3-c3cccnc3Nc3ccccc3-4)cc2)CCC1 [Example 150]
28 nM | NC1(c2ccc(-c3c(-c4ccoc4)nc4n3-c3cccnc3Nc3ccccc3-4)cc2)CCC1 [Example 9]
84 nM | NC1(c2ccc(-c3c(-c4ccccc4F)nc4n3-c3cccnc3Nc3ccccc3-4)cc2)CCC1 [Example 136]
4 nM | NC1(c2ccc(-c3c(-c4ncco4)nc4n3-c3cccnc3Nc3ccccc3-4)cc2)CCC1 [Example 151]
184 nM | NC1(c2ccc(-c3nc4n(c3-c3ccccc3)-c3cccnc3Nc3ccccc3-4)cc2)CCC1 [Example 144]
119 nM | NC1(c2ccc(-c3c(-c4ccc(F)cc4)nc4n3-c3cccnc3Nc3ccccc3-4)cc2F)CCC1 [Example 135]
14 nM | NC1(c2ccc(-c3c(-c4cnccn4)nc4n3-c3cccnc3Nc3ccccc3-4)cc2)CCC1 [Example 15]

Continued, compound first:

SMILES | IC50
NC1(c2ccc(-c3c(-c4ccc(F)cc4)nc4n3-c3cccnc3Nc3ccccc3-4)cc2)CCC1 [Example 134] | 53 nM
Cc1ccccc1-c1nc2n(c1-c1ccc(C3(N)CCC3)c(F)c1)-c1cccnc1Nc1ccccc1-2 [Example 142] | 485 nM
NC1(c2ccc(-c3c(-c4cccc(F)c4)nc4n3-c3cccnc3Nc3ccccc3-4)cc2)CCC1 [Example 139] | 74 nM
NC1(c2ccc(-c3c(CC(=O)Nc4ccccc4)nc4n3-c3cccnc3Nc3ccccc3-4)cc2)CCC1 [Example 145] | > 1000 nM
NCc1ccc(-c2nc3n(c2-c2ccc(C4(N)CCC4)cc2)-c2cccnc2Nc2ccccc2-3)cc1 [Example 149] | 18 nM
COc1ncc(-c2nc3n(c2-c2ccc(C4(N)CCC4)cc2)-c2cccnc2Nc2ccccc2-3)s1 [Example 68] | 27 nM
C[C@H](N)c1ccc(-c2c(-c3ccccc3)nc3n2-c2cccnc2Nc2ccccc2-3)cc1 [Example 147] | 46 nM
NC1(c2ccc(-c3c(-c4cccs4)nc4n3-c3cccnc3Nc3ccccc3-4)cc2)CCC1 [Example 83] | 73 nM
Nc1ncc(-c2nc3n(c2-c2ccc(C4(N)CCC4)cc2)-c2cccnc2Nc2ccccc2-3)cn1 [Example 31, trihydrochloride] | 3 nM
Cn1nccc1-c1nc2n(c1-c1ccc(C3(N)CCC3)cc1)-c1cccnc1Nc1ccccc1-2 [Example 70] | 343 nM
Cc1cccc(NC(=O)Cc2nc3n(c2-c2ccc(C4(N)CCC4)cc2)-c2cccnc2Nc2ccccc2-3)n1 [Example 146] | > 1000 nM
